Key:
Type in all cases: physicochemical
[1] = crystal structure after wet grinding; conditions: subjected to wet grinding
[2] = resistance to oxidative stress; conditions: compared with blarcamesine hydrochloric acid salt
[3] = solubility over the relevant pH range; conditions: entire relevant pH range

Compound	retention of crystal structure / polymorphic form after wet grinding [1]	resistance to oxidative stress [2]	solubility [3]
(S)-(−)-blarcamesine hydrochloride, (R)-(+)-blarcamesine hydrochloride, ZnCl2 (1:1:1) co-crystal [ZnCl2 co-crystal]	retains its crystal structure	more resistant to oxidative stress than the hydrochloric acid salt	
CN(C)CC1CCOC1(c1ccccc1)c1ccccc1.Cl (racemic) [hydrochloric acid salt, [(2,2-diphenyloxolan-3-yl)methyl]dimethylamine hydrochloride]	polymorphic form of the hydrochloride salt changes		extreme solubility

Reference: patent publication US12018005B1, “Blarcamesine co-crystals for the manufacture of pharmaceutical dosage form” (EGIS GYÓGYSZERGYÁR ZRT., priority 2023, dated 2024)
